The text below walks through data of publication PMC6826492, “Experimental and Computational Study of the Antioxidative Potential of Novel Nitro and Amino Substituted Benzimidazole/Benzothiazole-2-Carboxamides with Antiproliferative Activity” (Antioxidants, 2019).

For data set [1], the system named is H 460 (lung carcinoma). The data set is described as follows: Antiproliferative activity in vitro (MTT assay). The following applies: Homo sapiens, NCI-H460, 72 h, 72 h incubation, concentration that causes 50% growth inhibition. It is filed as cell-based, human. The method, then: (§1) The experiments were performed on four human cell lines, including HCT 116 (colon carcinoma), H 460 (lung carcinoma), MCF-7 (breast carcinoma), and HEK 293 (human embryonic kidney cells), in line with previously published experimental procedures. Briefly, the cells were grown in DMEM medium with the addition of 10% fetal bovine serum (FBS), 2 mM L-glutamine, 100 U/mL penicillin, and 100 µg/mL streptomycin, and cultured as monolayers at 37 °C in a humidified atmosphere with 5% CO2. Cells were seeded at 2 × 10^3 cells/well in a standard 96-well microtiter plates and left to attach for 24 h. The next day, a test compound was added in five serial 10-fold dilutions. The rate of cell growth was evaluated after 72 h of incubation with MTT assays. The obtained results are expressed as IC50 values, calculated from the concentration-response curve using linear regression analysis by fitting the test concentrations that give PG values above and below the reference value (i.e., 50%). Each test was performed in quadruplicate in at least two individual experiments.
Background: Tetrazolium dyes change colour on reduction, which living cells bring about.

The test system of data set [2] is HCT 116 (colon carcinoma). The data set is described as follows: Antiproliferative activity in vitro (MTT assay). Particulars: Homo sapiens, HCT-116, 72 h, 72 h incubation, concentration that causes 50% growth inhibition, read-out: IC50 HCT116. It is filed as cell-based, human. The method, then:
as §1

The subject of data set [3] is MCF-7 (breast carcinoma). In words: Antiproliferative activity in vitro (MTT assay). It is filed as cell-based, human. Particulars: Homo sapiens, MCF7, 72 h, 72 h incubation, concentration that causes 50% growth inhibition. The procedure: as §1
The test system of data set [4] is HEK 293 (human embryonic kidney cells). The data set is described as follows: Cytotoxic activity on non-cancerous cells (MTT assay). In kind it is cell-based. The following applies: Homo sapiens, HEK293; non-tumor cell line; 72 h incubation, MTT; concentration that causes 50% growth inhibition. The procedure:
as §1

Data set [5] in a line: DPPH free radical scavenging. The following applies: for IC50: after 30 min of incubation with 100 μM DPPH. It is filed as biochemical. The procedure: The reducing activity of investigated systems was achieved by the DPPH method according to previously described procedures with modifications to assure the use in a 96-well microplate. Briefly, equal volumes of various concentrations of tested molecules (dissolved in DMSO) were added to the solution of DPPH (final concentration 50 µM in absolute ethanol). Ethanol and DMSO were used as control solutions in line with earlier reports.

Data set [6] in a line: Ferric reducing/antioxidant power (FRAP assay). It is filed as biochemical. Particulars: for FRAP: means ± standard deviation, absorbance at 593 nm. The procedure: The FRAP method was carried out according to previously described procedures with some modifications to be compatible with an assay on a 96-well microplate. All tests were done in triplicate, while the obtained results were averaged and reported as Fe^2+ equivalents (Fe^2+ µmol).
By using the FRAP assay, we investigated the reducing power of investigated systems, which was monitored by the corresponding changes in the absorbance at 593 nm. This method is based on the ability of systems to reduce the ferric tripyridyl triazine complex (TPTZ) to the ferrous state (Fe^2+), which can be seen by an intense blue color. […] Good reducing ability was shown by the trimethoxy substituted benzimidazole-2-carboxamide 14 bearing the amino group (1102.5 ± 14.1 mmolFe^2+/mmolC).

Data set [7] concerns HCT 116 cells. The data set is described as follows: Antioxidative activity assay in cells (TBHP-induced ROS, DCFH-DA). In kind it is cell-based, human. Particulars: 100 µM TBHP + 10 µM compound, 1 h, DCFH-DA fluorescence. The procedure:
For the antioxidative activity assay, 2.5 × 10^4 cells were seeded into 96-well microtiter plates and left to attach for 24 h. The next day, cells were washed with PBS and incubated in FBS-free DMEM medium with 25 µM DCFH-DA fluorescence dye. After 45 min of incubation, medium was discarded, and cells were washed with PBS. After the washing step, cells were incubated with 100 µM tert-Butyl hydroperoxide (TBHP) alone or in combination with antioxidative agents (50 mM N-Acetyl-L-cysteine—NAC, or 10 µM tested compounds) in PBS, for 1 h at 37 °C. DCFH-DA fluorescence was recorded on a microplate fluorimeter reader (Tecan) with excitation beam of 485 nm, while the emitted fluorescence was collected at 535 nm. All tests were presented as medians of three independent measurements, done in triplicates. One-way ANOVA with Tukey’s post-hoc test was used for statistical analysis, * p < 0.05, ** p < 0.01, *** p < 0.001.
In order to test the antioxidant activity of selected systems in tumor cells (Figure 1), we treated HCT 116 cells with tert-Butyl hydroperoxide (TBHP), a substance commonly used for inducing oxidative stress in cells and tissues, alone or in a combination with a known antioxidative agent N-Acetyl-L-cysteine (NAC) or tested compounds [35]. We measured the formation of oxidative stress by-products using 2′,7′-dichlorodihydrofluorescein diacetate (DCFH-DA). We selected system 8 showing pronounced antiproliferative/cytotoxic activity, but no antioxidant capacity in DPPH/FRAP assays, 29 showing exceptionally pronounced antioxidative activity in DPPH/FRAP tests, 14 showing negligible antiproliferative but strong antioxidant capacity in both DPPH/FRAP assays, and 26 showing similarly strong antiproliferative and radical trapping activity in DPPH assay, but rather modest reducing power in FRAP assay. None of the compounds influenced the basal level of ROS in the cells. […] On the other hand, no effect was obtained upon treatment with either 8 or 14 (Figure 1). We additionally tested the impact of the selected compounds on cellular and mitochondrial ROS production in HCT 116 cells using fluorescent dyes, DCFH-DA for cellular and MitoSOX for mitochondrial ROS detection (Supplementary Materials, Figures S53 and S54).
Figure 1 Antioxidative activity of selected systems. HCT 116 cells were treated with the combination of tert-Butyl hydroperoxide (TBHP, 100 uM) and N-Acetyl-L-cysteine (NAC, 50 mM) or tested compounds 8, 14, 26, and 29 (10 µM) for 1 h. The level of reactive oxygen species (ROS) was measured with fluorescent dye 2′,7′-dichlorodihydrofluorescein diacetate (DCFH-DA) using fluorimeter. Treatment with 100 uM TBHP alone was used as a control for ROS induction. Data presented here are the results of three independent measurements, done in triplicates. […]

For data set [8], the system named is HCT116 cell line. In words: Cellular ROS measurement assay (DCFH-DA, flow cytometry). It is filed as cell-based, human. The following applies: HCT116, 10 µM compounds (2 mM H2O2 positive control), 1 h, DCF-DA; *** p < 0.001, ns not significant. The procedure: Figure S53. Impact of compounds on cellular ROS production was measured with fluorescent dye DCF-DA in HCT116 cell line, after the treatment with 10 µM compounds for 1h. H 2O2 was used as a positive control. Data presented here are the results of 3 independent measurements, done in duplicates. One-way ANOVA with Tukey’s post-hoc test was used for statistical analysis, ***- p < 0.001. […]
Human colon carcinoma cell line HCT116 was grown in DMEM medium with the addition of 10% fetal bovine serum (FBS), 2 mM L-glutamine, 100 U/ml penicillin and 100 µg/ml streptomycin, and cultured as monolayers at 37°C in a humidified atmosphere with 5% CO2.
Cellular ROS measurement assay
For the cellular ROS measurement assay, 2.5 × 10^4 cells were seeded into 96-well microtiter plates 24h prior to experiment. Next day, cells were trypsinized and incubated in FBS-free DMEM medium with 20 µM DCFH-DA fluorescence dye for 45 minutes. After the incubation, compounds were added without washing and cells were treated with 2 mM H 2O2 as a positive control and 10 µM compounds 8, 14 and 26 for 1 hour. Cells were washed in PBS and DCFH-DA signal was measured by flow cytometry, in FL1 channel. […]
On the technique in general: Flow cytometry measures light scatter and fluorescence of single cells or particles in a stream.

Data set [9] has as its system HCT116 cell line. The data set is described as follows: Mitochondrial ROS measurement assay (MitoSOX, flow cytometry). In kind it is cell-based, human. The following applies: HCT116, 10 µM compounds (3 µM Rotenone positive control), 1 h, *** p < 0.001, ns not significant.
Data set [10] is described as follows: DFT calculation of bond dissociation and ionization energies. Particulars: for BDE lower than BDE (M1): difference to M1. An excerpt: All geometrical parameters were optimized employing the density functional theory (DFT) B3LYP functional (unrestricted UB3LYP for the radicals), together with the 6–31+G(d) basis set, followed by the vibrational analysis using the Gaussian 16 software. Thermal corrections were extracted from the matching uncorrected vibrational frequencies, also used to confirm the obtained structures as true minima by the lack of imaginary frequencies. The final electronic energies were refined through single-point calculations with a highly flexible 6–311++G(2df,2pd) basis set. Solvent effects were considered through the implicit SMD polarizable continuum model with all parameters for pure ethanol (ε = 24.852), giving the B3LYP/6–311++G(2df,2pd)//(SMD)/B3LYP/6–31+G(d) model employed here, being fully in line with our earlier reports. As such, all computational values correspond to differences in Gibbs free energies obtained at a room temperature of 298 K and a normal pressure of 1 atm. The choice of this computational setup was additionally prompted by its success in modeling mechanisms of various antioxidants, and in reproducing kinetic and thermodynamic parameters of a variety of organic and enzymatic reactions. According to the literature, there are several mechanisms that relate to the antioxidative properties of molecules. Here, we inspected the two most frequent, and usually thermodynamically most preferred antioxidant mechanisms, namely hydrogen atom transfer (HAT), and single electron transfer (SET) that is commonly followed by proton transfer (SET-PT). All these mechanisms result in the formation of the same antioxidant radical.
HAT is a major route where the H atom (hydrogen radical, H•) is directly transferred from an antioxidant (M) to a free radical accompanied by the homolytic M–H bond cleavage. The capacity of this process is governed by the M–H bond dissociation energy (BDE), calculated as:M–H → M• + H• BDE = G(M•) + G(H•) − G(M–H).
Scavenging the free radicals can also be accomplished by donating an electron from a system M in the SET-PT process. This process is driven by the adiabatic ionization energy (IE) necessary to eject a single electron from M, calculated as:M → M•^+ + e^− IE = G(M•^+) − G(M).

As for `COc1cc(C(=O)Nc2nc3ccc(N)cc3[nH]2)cc(OC)c1OC` [Compound 14, N-[5(6)-aminobenzimidazol-2-yl]-3,4,5-trimethoxybenzamide], the IC50 in [1] was above 100000 nM; in data set [2], 76 ± 24 µM; in [3] it was 43 ± 15 µM; in [4] it was 43 ± 2 µM; in data set [5] it was 10.7 ± 0.23 µM. The “antioxidant potency relative to 17” value in [5] (DPPH, 14 vs 17) is “around four times”. The molecule further registered an FRAP in data set [6] of 1102.5 ± 14.1 mmolFe^2+/mmolC. Further, in data set [7], the “ROS levels when oxidative stress was induced” value (shortened to “ROS levels”) was “no effect”. The “cellular ROS production (significance vs control)” value in [8] is listed as “ns”. In addition, the “mitochondrial ROS production (significance vs control)” value in data set [9] is on record as “ns”.
As to `COc1c(O)cc(C(=O)Nc2nc3ccc([N+](=O)[O-])cc3[nH]2)cc1O` [Compound 26, 3,5-dihydroxy-4-methoxy-N-[5(6)-nitrobenzimidazol-2-yl]benzamide], the half-inhibitory concentration (IC50) in data set [1] was 3000 ± 500 nM; in [2] it was 4 ± 0.1 µM; in data set [3] it was 3 ± 1 µM; in [4] it was 3 ± 0.7 µM; in data set [5], 8.1 ± 1.9 µM. The molecule further displayed an FRAP in data set [6] of 244.9 ± 4.8 mmolFe^2+/mmolC. Besides, the “ROS levels” value in data set [7] is listed as “significantly reduced the ROS levels”. The “cellular ROS production (significance vs control)” value in [8] was “ns”. Besides, the “mitochondrial ROS production (significance vs control)” value in [9] was “ns”.
On to `O=C(Nc1nc2ccc([N+](=O)[O-])cc2s1)c1cc(O)c(O)c(O)c1` [Compound 29, 3,4,5-trihydroxy-N-(6-nitrobenzothiazol-2-yl)benzamide], for which the IC50 was determined as 2000 ± 1000 nM in data set [1]; 7 ± 1 µM in data set [2]; 4 ± 0.7 µM in data set [3]; 6 ± 4 µM in data set [4]; 2 ± 0.15 µM in [5]. In addition, the FRAP in data set [6] came out at 6139.2 ± 3.0 mmolFe^2+/mmolC. Further, the “FRAP reducing power in comparison to standard BHT” value in [6] (relative to BHT) was “threefold higher”. In addition, the “ROS levels” value in [7] is given as “significantly reduced the ROS levels”. The “BDE increase relative to M12” value in data set [10] (difference to M12) is 0.8 kcal/mol.
Turning to `O=C(Nc1nc2ccccc2s1)c1ccccc1` [Compound M1], the “BDE higher than that for BHT” value in data set [10] (difference to BHT (65.8)) is 16.9 kcal/mol.
Consider `O=C(NC1=Nc2ccccc2C1)c1ccccc1` [Compound M4], for which the “BDE lower than BDE (M1)” value in data set [10] is 10.1 kcal/mol.
For the molecule `Nc1ccc2nc(NC(=O)c3ccccc3)sc2c1` [Compound M6], the “BDE lower than BDE (M1)” value in data set [10] was 7.1 kcal/mol.
Regarding `Nc1ccc2nc(NC(=O)c3ccccc3)sc2c1` [Compound M7], the “BDE lower than BDE (BHT)” value in data set [10] (difference to BHT (65.8)) was 17.5 kcal/mol.
Consider `O=C(Nc1nc2ccccc2s1)c1ccc(O)cc1` [Compound M8], for which the “BDE lower than BDE (M1)” value in [10] is 4.8 kcal/mol.
Regarding `COc1ccc(C(=O)Nc2nc3ccccc3s2)cc1` [Compound M9], the “BDE lower than BDE (M1)” value in data set [10] was 0.5 kcal/mol.
Turning to `O=C(Nc1nc2ccc([N+](=O)[O-])cc2s1)c1ccc(O)cc1` [Compound M10], the “lowering of antioxidative capacity (BDE increase) relative to M8” value in [10] (difference to M8) was 1.1 kcal/mol.
In the case of `COc1cc(C(=O)Nc2nc3ccc(N)cc3[nH]2)cc(OC)c1OC` [Compound M22], the “more potent antioxidant (lower BDE) than nitro-substituted M21” value in data set [10] (difference to M21) is around 15 kcal/mol.

What is called IC50 is the concentration that gives 50% inhibition.
